Experimental data as given in PubChem BioAssay (NCI).
Values joined by “and” are separate entries in the source; they are usually repeats but may differ in a detail not shown here. Equal values may be shown once.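 These data come from cells grown in 96-well plates and exposed to compound for 48 hours at five concentrations. GI50 marks 50% less growth. TGI: concentration producing complete growth inhibition.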

Tests used:
Test in all cases: growth of human tumour cells (NCI), 48 h
NCI-H522 lung = tested on: NCI-H522 lung
SK-MEL-5 melanoma = tested on: SK-MEL-5 melanoma
HS 578T breast = tested on: HS 578T breast
SK-OV-3 ovarian = tested on: SK-OV-3 ovarian
CAKI-1 renal = tested on: CAKI-1 renal
U251 CNS = tested on: U251 CNS
786-0 renal = tested on: 786-0 renal
PC-3 prostate = tested on: PC-3 prostate
MDA-MB-435 = tested on: MDA-MB-435
HL-60(TB) leukemia = tested on: HL-60(TB) leukemia

Structure (SMILES) | GI50 (NCI-H522 lung) [µM] | TGI (NCI-H522 lung) | GI50 (SK-MEL-5 melanoma) [µM] | TGI (SK-MEL-5 melanoma) [µM] | GI50 (HS 578T breast) [µM] | TGI (HS 578T breast) [µM] | GI50 (SK-OV-3 ovarian) | TGI (SK-OV-3 ovarian) | GI50 (CAKI-1 renal) [µM] | TGI (CAKI-1 renal) [µM] | GI50 (U251 CNS) [µM] | TGI (U251 CNS) | GI50 (786-0 renal) [µM] | TGI (786-0 renal) [µM] | GI50 (PC-3 prostate) [µM] | TGI (PC-3 prostate) [µM] | GI50 (MDA-MB-435) [µM] | TGI (MDA-MB-435) [µM] | GI50 (HL-60(TB) leukemia) [µM] | TGI (HL-60(TB) leukemia) [µM]
O=C(NN1C(=O)CSC12CCCC2)C(O)c1ccccc1 (centres undefined) | > 100 | > 100 µM | > 100 | > 100 | > 100 | > 100 | > 100 µM | > 100 µM | > 100 | > 100 | > 100 | > 100 µM | > 100 | > 100 | > 100 | > 100 | > 100 | > 100 | – | –
COc1ccc2c(c1)N(CCO)C1=C(C(=O)OC1)C2c1ccccc1 (centres undefined) | 0.746 | 3.33 µM | 1.58 | 8.83 | 1.39 | 4.99 | 1.9 µM | > 50 µM | 1.15 | > 50 | 1.81 | > 50 µM | 2.7 | > 50 | 1.75 | > 50 | – | – | 1.15 | 2.84
Cc1ccc(NC(=O)CC/C(CC(=O)C(C)(C)C)=N\Nc2ccc([N+](=O)[O-])cc2[N+](=O)[O-])cc1C | – | – | – | – | – | – | – | > 100 µM | – | – | – | > 100 µM | – | > 100 | – | – | – | – | – | –
Nc1nc(N)c(N=Nc2ccc(C(=O)O)c(O)c2)c(N)n1 | – | > 100 µM | – | > 100 | – | > 100 | – | > 100 µM | – | > 100 | – | > 100 µM | – | > 100 | – | > 100 | – | > 100 | – | –
COc1ccc(/C=C\c2cc(OC)c(OC)c(OC)c2)c(O)c1O | – | 0.262 µM and 0.823 µM | < 0.015 | – | – | – | 0.586 µM and 1.68 µM | 15.1 µM and 48.3 µM | – | – | 0.0933 | 18.7 µM and 6.09 µM | – | 16.3 | – | 36.1 | – | 0.0163 | – | 0.376
N#Cc1cc(NC(=O)c2ccccc2)c(=O)n2c1[nH]c1ccccc12 | – | 42 µM | – | 34.2 | – | – | – | 90.4 µM | – | > 100 | – | > 100 µM | – | > 100 | – | – | – | – | – | 74.6
O=C1C2ON3c4ccccc4C(=O)C3(c3ccccc3)C2C(=O)N1c1ccccc1 (centres undefined) | – | > 100 µM | – | > 100 | – | – | – | > 100 µM | – | – | – | > 100 µM | – | > 100 | – | – | – | – | – | > 100
Cc1c(C2Cc3ccccc3N2)c2ccccc2n1C (centres undefined) | – | > 100 µM | – | > 100 | – | – | – | > 100 µM | – | > 100 | – | > 100 µM | – | > 100 | – | – | – | – | – | > 100
CCOC(=O)C1SC(=Nc2ccc(Cl)cc2C)N=C1C (centres undefined) | – | 27 µM | – | 29.9 | – | – | – | – | – | 79.9 | – | 31.6 µM | – | 32.6 | – | – | – | – | – | 27.1
COc1ccc(CNc2cnc3cc(N)cc(N)c3n2)cc1 | 17.9 | 44.1 µM | 18.9 | 35.2 | 24.2 | 69.3 | 82.1 µM | > 100 µM | 28.9 | 68.6 | 17.2 | 32.5 µM | 17.2 | 31.6 | 34.2 | > 100 | 21.7 | 39 | – | –
COCOCC[C@@H]1CC=CC(NC(=O)OCc2ccccc2)C1/C=C/C(=O)CCC1OCCO1 (some centres undefined) | – | 34.7 µM | – | > 100 | – | – | – | > 100 µM | – | > 100 | – | 70.6 µM | – | > 100 | – | – | – | – | – | 51
CN(C)CCNC(=O)c1cccc2ncc(-c3ccccc3)nc12 | – | 21.1 µM | – | 24.1 | – | – | – | 82.6 µM | – | > 68.6 | – | 41.7 µM | – | > 100 | – | – | – | – | – | 42.4
CC(C)CCC(=O)[C@@H](C)[C@H]1[C@@H](OC2OCC(O)C(O)C2NS(C)(=O)=O)C[C@H]2[C@@H]3CC=C4C[C@@H](O)CC[C@]4(C)[C@H]3CC[C@]12C (some centres undefined) | 5.05 | 12.5 µM | 1.26 | 4.51 | 0.423 | 3.41 | 1.27 µM | 5.04 µM | 1.16 | 5.56 | 0.901 | 7.8 µM | 0.181 | 0.93 | 0.982 | 4.16 | 0.88 | 2.16 | – | –
O=C(O)CCSC(=S)Nc1cccc(F)c1 | – | – | – | 43.5 | – | – | – | > 100 µM | – | > 100 | – | > 100 µM | – | > 100 | – | – | – | – | – | –
